In test [1] the target is NADH:quinone oxidoreductase (NQO), PA1024 (Pseudomonas aeruginosa, UniProt Q9I4V0, Q80G). Conditions: read-out: KBQ; varied NADH; 20 mM KPi, 200 mM NaCl, pH 7.0, 25 °C.
Test [2] concerns the target NADH:quinone oxidoreductase (NQO), PA1024 (Pseudomonas aeruginosa, UniProt Q9I4V0, Q80E). The conditions noted are these: read-out: KBQ; varied NADH; 20 mM KPi, 200 mM NaCl, pH 7.0, 25 °C.
Test [3] deals with T1, NADH:quinone oxidoreductase (NQO), PA1024 (Pseudomonas aeruginosa, UniProt Q9I4V0).
T1 construct: full-length gene PA1024 in pET20b(+), expressed in E. coli Rosetta(DE3)pLysS, purified; EC 1.6.5.9
T1 sequence (Q9I4V0 whole entry): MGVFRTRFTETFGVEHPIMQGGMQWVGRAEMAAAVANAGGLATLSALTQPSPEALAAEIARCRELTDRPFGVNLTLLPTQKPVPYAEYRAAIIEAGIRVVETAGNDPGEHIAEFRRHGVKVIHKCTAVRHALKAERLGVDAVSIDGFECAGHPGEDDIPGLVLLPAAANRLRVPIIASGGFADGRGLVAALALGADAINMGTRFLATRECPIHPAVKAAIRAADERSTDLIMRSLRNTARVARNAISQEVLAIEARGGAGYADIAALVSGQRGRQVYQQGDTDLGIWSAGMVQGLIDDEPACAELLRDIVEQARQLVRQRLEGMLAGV
The experiment in a line: steady-state NADH oxidation at […] nm, ping-pong global fit. It counts as biochemical. Conditions: varied NADH; 20 mM KPi, 200 mM NaCl, pH 7.0, 25 °C; read-out: KBQ.

The target of test [4] is T1, NADH:quinone oxidoreductase (NQO), PA1024. The test is described as follows: steady-state NADH oxidation at […] nm, Michaelis-Menten fit. Type of test: biochemical. The conditions noted are these: 100 μM NADH fixed (not saturating; apparent; unreliable); 20 mM KPi, 200 mM NaCl, pH 7.0, 25 °C.
The target is the same in test [5]. The test is described as follows: UV-visible absorption, FMN extraction by heat denaturation. It counts as binding. The conditions noted are these: 10 mM Tris-Cl, 200 mM NaCl, 10% glycerol, pH 8.0, 25 °C; stoichiometry of co-purified FMN.
For test [6] the target is unchanged. The test is described as follows: anaerobic stopped-flow flavin reduction at […] nm. It counts as biochemical. Conditions: 20 mM KPi, 200 mM NaCl, pH 7.0, 25 °C, unreliable (upper-bound estimate, saturated at lowest NADH).
Test [7] has the same target. The experiment in a line: anaerobic flavin reduction, absorption spectra. Type of test: biochemical. The conditions noted are these: 500 μM NADPH, pH 7, 25 °C, poor substrate.

Results on seven molecules are retold here after paper PMC10033279 (The Journal of Biological Chemistry, 2023).

Where only a bound is given, the exact number is not on record here.

Sequence of NADH:quinone oxidoreductase (NQO), PA1024 (Pseudomonas aeruginosa, UniProt Q9I4V0, Q80G) (Q9I4V0 whole entry Q80G): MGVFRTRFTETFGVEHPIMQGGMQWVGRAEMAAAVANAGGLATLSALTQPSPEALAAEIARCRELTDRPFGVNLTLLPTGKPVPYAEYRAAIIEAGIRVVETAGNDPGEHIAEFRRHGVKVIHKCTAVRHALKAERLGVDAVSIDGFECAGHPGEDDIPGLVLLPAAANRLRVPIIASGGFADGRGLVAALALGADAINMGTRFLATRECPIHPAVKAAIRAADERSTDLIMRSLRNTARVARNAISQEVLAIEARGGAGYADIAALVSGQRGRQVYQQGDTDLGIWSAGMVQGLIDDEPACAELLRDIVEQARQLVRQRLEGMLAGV
Sequence of NADH:quinone oxidoreductase (NQO), PA1024 (Pseudomonas aeruginosa, UniProt Q9I4V0, Q80E) (Q9I4V0 whole entry Q80E): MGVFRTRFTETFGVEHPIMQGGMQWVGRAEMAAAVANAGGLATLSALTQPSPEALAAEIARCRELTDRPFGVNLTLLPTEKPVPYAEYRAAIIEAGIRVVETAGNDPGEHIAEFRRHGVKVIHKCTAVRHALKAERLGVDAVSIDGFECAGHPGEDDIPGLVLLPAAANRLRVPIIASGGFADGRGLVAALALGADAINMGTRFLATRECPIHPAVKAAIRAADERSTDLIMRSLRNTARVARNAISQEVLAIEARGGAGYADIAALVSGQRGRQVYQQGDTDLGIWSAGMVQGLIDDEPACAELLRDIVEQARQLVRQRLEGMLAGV

As to `O=C1C=CC(=O)C=C1` [1,4-benzoquinone], the Km came to 20 ± 1 µM in test [1], 15 ± 1 µM in test [2] and 30 ± 1 µM in test [3].
As for `COC1=C(OC)C(=O)C(C)=CC1=O` [2,3-dimethoxy-5-methyl-1,4-benzoquinone], in test [4], the “^app(Km)” value is 60 ± 1 µM.
Regarding `CC1=CC(=O)C=CC1=O` [2-methyl-1,4-benzoquinone], the “^app(Km)” value in test [4] was 96 ± 1 µM.
The same measure, in the same setting: the same measure for `O=C1C=CC(=O)c2c(O)cccc21` [5-hydroxy-1,4-naphthoquinone]: 21 ± 1 µM.
For the molecule `Cc1cc2nc3c(=O)[nH]c(=O)nc-3n(C[C@H](O)[C@H](O)[C@H](O)COP(=O)(O)O)c2cc1C` [FMN], the FMN/Protein in test [5] was determined as 0.40.
Take `NC(=O)C1=CN([C@@H]2O[C@H](COP(=O)(O)OP(=O)(O)OC[C@H]3O[C@@H](n4cnc5c(N)ncnc54)[C@H](O)[C@@H]3O)[C@@H](O)[C@H]2O)C=CC1` [NADH]: the “Kd (μM)” value in test [6] is on record as “<= ≤ 3 μM”.
Turning to `NC(=O)C1=CN([C@@H]2O[C@H](COP(=O)(O)OP(=O)(O)OC[C@H]3O[C@@H](n4cnc5c(N)ncnc54)[C@H](OP(=O)(O)O)[C@@H]3O)[C@@H](O)[C@H]2O)C=CC1` [NADPH], the “% flavin reduction over 10 min at 500 μM” value in test [7] is ~ 10%.
